Measured values as given in US20210244637A1, “DEUTERATED POLYUNSATURATED FATTY ACIDS OR ESTERS THEREOF FOR COSMETIC APPLICATIONS” (Retrotope, Inc., priority 2020, published 2021).

Tested on: 2-nonenal
Assay: Reduction in skin odor: 2-nonenal in urine of mice fed D2-LA ethyl ester
Assay type: in vivo
Conditions: BALB/c mice; feed supplemented daily, no more than about 10% of PUFAs ingested; after 4 weeks of dosing; urine collected over 2 days; versus LA ethyl ester cohort
Protocol: Mice are known to generate skin odor and the causative agent is 2-nonenal. This example explores the contribution of lipid chain auto-oxidation to the generation of such skin odor. Specifically, two cohorts of BALB/c mice are tested. The feed of the first cohort is supplemented daily with D2-LA ethyl ester in an amount such that D2-LA ethyl ester constitutes no more than about 10% of the PUFAs ingested. The feed provided to the other cohort is supplemented with LA ethyl ester in otherwise identical amounts. After 4 weeks of dosing, the urine from each cohort is collected over a 2-day period and then analyzed to assess differences in the amount of 2-nonenal. Alternatively, skin samples can be evaluated for sebum exudates such as by swabs for chemical components.

## [2H]C([2H])(/C=C\CCCCC)/C=C\CCCCCCCC(=O)OCC [D2-linoleic acid ethyl ester]
  amount of 2-nonenal: significant reduction
